Test results published in patent US7429605B2, “Phenylpyridine derivatives” (Hoffmann-La Roche Inc., priority 2005, dated 2008).

System: HEK293 cells
Assay: Viability assay in HEK293 cells (CellTiter-Glo Luminescent Cell Viability Assay)
Assay type: cell-based
Settings: Homo sapiens, 7 days (168 h) incubation, compound 3 μM to 0.00015 μM, ATP luminescence
Procedure: Viability Assay in HEK293 Cells
A viability assay was performed using the CellTiter-Glo® Luminescent Cell Viability Assay (see Promega Corporation's Technical Bulletin No. 288, pp. 1-11 [revised 2/04] which is hereby incorporated by reference in its entirety). This assay is a homogeneous method of determining the number of viable cells in culture based on quantitation of the ATP present, an indicator of metabolically active cells. The assay is designed for use with multiwell formats, making it ideal for automated high-throughput screening (HTS), cell proliferation and cytotoxicity assays. The homogeneous assay procedure involves adding a single reagent (containing luciferase, luciferan substrate, and buffer) directly to cells cultured in serum-supplemented medium. Cell washing, removal of medium and multiple pipetting steps are not required. The system detects as few as 15 cells/well in a 384-well format in 10 minutes after adding reagent and mixing.
The homogeneous “add-mix-measure” format results in cell lysis and generation of a luminescent signal proportional to the amount of ATP present. The amount of ATP is directly proportional to the number of cells present in culture. The above-referenced assay generates a “glow-type” luminescent signal, produced by the luciferase reaction, which has a half-life generally greater than five hours, depending on cell type and medium used. The extended half-life eliminates the need to use reagent injectors and provides flexibility for continuous or batch mode processing of multiple plates. The unique homogeneous format avoids errors that may be introduced by other ATP measurement methods that require multiple steps.
HEK293 cells (human embryonic kidney cell line transformed by Adenovirus 5 fragments, ATCC-No. CRL 1573) were cultivated in Dulbecco's Modified Eagle Medium (DMEM) with Glutamax™ (cell culture media that contains L-Alanyl-L-Glutamine [a stabilized form/source of L-Glutamine] from Invitrogen, Cat-No. 31966-021), 5% Fetal Calf Serum (FCS, Sigma Cat-No. F4135 (FBS)), 100 Units/ml penicillin/100 μg/ml streptomycin (=Pen/Strep from Invitrogen Cat. No. 15140). For the assay the cells were seeded in 384 well plates, 5000 cells per well, in the same medium. The next day the test compounds were added in various concentrations ranging from 3 μM to 0.00015 μM (10 concentrations, 1:3 diluted). After 7 days the viability assay was done according to the instructions of the manufacturer. In brief: the cell-plate was equilibrated to room temperature for approximately 30 minutes and than the reagent (containing luciferase, luciferan substrate, and buffer) was added. The contents were carefully mixed for 15 minutes to induce cell lysis. After 45 minutes the luminescent signal was measured in Victor 2, (scanning multiwell spectrophotometer, Wallac).
Medium: Dulbecco's Modified Eagle Medium (DMEM) with Glutamax™ (Invitrogen, 31966-021), 5% Fetal Calf Serum (FCS, Sigma Cat-No. F4135 (FBS)), Pen/Strep (Invitrogen Cat. No. 15140).
Incubate 24 h at 37° C., 5% CO2
2. day Induction (Substance testing):
In general the dilution steeps are 1:3 a) Add 8 μl of 10 mM stock solution of compound to 72 μl DMSO b) dilute 9×1:3 (always 30 μl to 60 μl DMSO) in this DMSO dilution row (results in 10 wells with concentrations from 1000 μM to 0.06 μM) c) dilute each concentration 1:4.8 (10 μl compound dilution to 38 μd medium) d) dilute each concentration 1:10 (10 μl compound dilution to 90 μl medium) e) add 10 μl of every concentration to 60 μl medium in the cell plate resulting in final concentration of DMSO: 0.3% in every well and resulting in final concentration of compounds from 3 μM to 0.00015 μM Incubate 168 h (7 days) at 37° C., 5% CO2
Add 30 μl CellTiter-Glo™ Reagent (containing luciferase, luciferan substrate, and buffer)/well, shake 15 minutes at room temperature incubate further 45 minutes at room temperature without shaking.
Victor 2 scanning multiwell spectrophotometer (Wallac), Luminescence mode […]

Structure (SMILES) | IC50 [nM]
FC(F)(F)c1ccc(-c2ccc(COc3ccc(CCCCn4ccnn4)cc3)cn2)cc1 [Example 3, 5-[4-(4-[1,2,3]triazol-1-yl-butyl)-phenoxymethyl]-[2-(4-trifluoromethyl-phenyl)]-pyridine] | 5 to 1000
Cc1cc(OCc2ccc(-c3ccc(OC(F)(F)F)cc3)nc2)ccc1CCCCn1ccnn1 [Example 4, 5-[3-Methyl-4-(4-[1,2,3]triazol-1-yl-butyl)-phenoxymethyl]-[2-(4-trifluoromethoxy-phenyl)]-pyridine] | 365
Cc1cc(OCc2ccc(-c3ccc(C(F)(F)F)cc3)nc2)ccc1CCCCn1ccnn1 [Example 5, 5-[3-Methyl-4-(4-[1,2,3]triazol-1-yl-butyl)-phenoxymethyl]-2-(4-trifluoromethyl-phenyl)-pyridine] | 89
Cc1cc(OCc2ccc(-c3ccc(C(F)(F)F)cc3)nc2C)ccc1CCCCn1ccnn1 [Example 6, 2-Methyl-3-[3-Methyl-4-(4-[1,2,3]triazol-1-yl-butyl)-phenoxymethyl]-6-(4-trifluoromethyl-phenyl)-pyridine] | 5 to 1000
Cc1nc(-c2ccc(C(F)(F)F)cc2)ccc1COc1ccc(CCCCn2ccnn2)cc1 [Example 7, 2-Methyl-3-[4-(4-[1,2,3]triazol-1-yl-butyl)-phenoxymethyl]-6-(4-trifluoromethyl-phenyl)-pyridine] | 5 to 1000
Cc1nc(-c2ccc(C(F)(F)F)cc2)ccc1COc1ccc(COCCn2ccnn2)cc1 [Example 8, 2-Methyl-3-[4-(2-[1,2,3]triazol-1-yl-ethoxymethyl)-phenoxymethyl]-6-(4-trifluoromethyl-phenyl)-pyridine] | 5 to 1000
Cc1nc(-c2ccc(C(F)(F)F)cc2)ccc1COc1ccc(C[S+]([O-])CCn2ccnn2)cc1 (stereo not drawn) [Example 9, 2-Methyl-3-[4-(2-[1,2,3]triazol-1-yl-ethanesulfinylmethyl)-phenoxymethyl]-6-(4-trifluoromethyl-phenyl)-pyridine] | 1000 to 5000
Cc1cc(OCc2ccc(-c3ccc(OC(F)(F)F)cc3)nc2C)ccc1CCCCn1ccnn1 [Example 11, 2-Methyl-3-[3-Methyl-4-(4-[1,2,3]triazol-1-yl-butyl)-phenoxymethyl]-6-(4-trifluoromethoxy-phenyl)-pyridine] | 5 to 1000
Cc1cc(OCc2ccc(-c3cccc(C(F)(F)F)c3)nc2C)ccc1CCCCn1ccnn1 [Example 13, 2-Methyl-3-[3-Methyl-4-(4-[1,2,3]triazol-1-yl-butyl)-phenoxymethyl]-6-(3-trifluoromethyl-phenyl)-pyridine] | 1000 to 5000
Cc1cc(OCc2ccc(-c3cccc(OC(F)(F)F)c3)nc2C)ccc1CCCCn1ccnn1 [Example 15, 2-Methyl-3-[3-Methyl-4-(4-[1,2,3]triazol-1-yl-butyl)-phenoxymethyl]-6-(3-trifluoromethoxy-phenyl)-pyridine] | 1000 to 5000
Cc1nc(-c2ccc(F)cc2)ccc1COc1ccc(CCCCn2ccnn2)cc1 [Example 16, 6-(4-Fluoro-phenyl)-2-methyl-3-[4-(4-[1,2,3]triazol-1-yl-butyl)-phenoxymethyl]-pyridine] | 5 to 1000
Cc1cc(OCc2ccc(-c3ccc(F)cc3)nc2C)ccc1CCCCn1ccnn1 [Example 17, 6-(4-Fluoro-phenyl)-2-methyl-3-[3-Methyl-4-(4-[1,2,3]triazol-1-yl-butyl)-phenoxymethyl]-pyridine] | 5 to 1000
FC(F)(F)c1ccc(-c2cccc(COc3ccc(CCCCn4ccnn4)cc3)n2)cc1 [Example 18, 2-[4-(4-[1,2,3]triazol-1-yl-butyl)-phenoxymethyl]-6-(4-trifluoromethyl-phenyl)-pyridine] | 1000 to 5000
Cc1cc(OCc2cccc(-c3ccc(C(F)(F)F)cc3)n2)ccc1CCCCn1ccnn1 [Example 19, 2-[3-Methyl-4-(4-[1,2,3]triazol-1-yl-butyl)-phenoxymethyl]-6-(4-trifluoromethyl-phenyl)-pyridine] | 5 to 1000
Cc1nc(-c2ccc(Cl)cc2)ccc1COc1ccc(CCCCn2ccnn2)cc1 [Example 20, 6-(4-Chloro-phenyl)-2-methyl-3-[4-(4-[1,2,3]triazol-1-yl-butyl)-phenoxymethyl]-pyridine] | 5 to 1000
Cc1cc(OCc2ccc(-c3ccc(Cl)cc3)nc2C)ccc1CCCCn1ccnn1 [Example 21, 6-(4-Chloro-phenyl)-2-methyl-3-[3-Methyl-4-(4-[1,2,3]triazol-1-yl-butyl)-phenoxymethyl]-pyridine] | 5 to 1000
Cc1nc(-c2ccc(C(F)(F)F)cc2)ccc1COc1ccc(CSCCn2ccnn2)cc1 [Example 22, 2-Methyl-3-[4-(2-[1,2,3]triazol-1-yl-ethylsulfanylmethyl)-phenoxymethyl]-6-(4-trifluoromethyl-phenyl)-pyridine] | 5 to 1000
Cc1nc(-c2ccc(F)cc2)ccc1COc1ccc(CSCCn2ccnn2)cc1 [Example 23, 6-(4-Fluoro-phenyl)-2-methyl-3-[4-(2-[1,2,3]triazol-1-yl-ethylsulfanylmethyl)-phenoxymethyl]-pyridine] | 1000 to 5000
Cc1cc(OCc2ccc(-c3cccc(C(F)(F)F)c3)nc2)ccc1CCCCn1ccnn1 [Example 26, 5-[3-Methyl-4-(4-[1,2,3]triazol-1-yl-butyl)-phenoxymethyl]-2-(3-trifluoromethyl-phenyl)-pyridine] | 1000 to 5000
Clc1ccc(-c2ccc(COc3ccc(CCCCn4ccnn4)cc3)cn2)cc1 [Example 27, 2-(4-Chloro-phenyl)-5-[4-(4-[1,2,3]triazol-1-yl-butyl)-phenoxymethyl]-pyridine] | 5 to 1000
Cc1cc(OCc2ccc(-c3ccc(Cl)cc3)nc2)ccc1CCCCn1ccnn1 [Example 28, 2-(4-Chloro-phenyl)-5-[3-methyl-4-(4-[1,2,3]triazol-1-yl-butyl)-phenoxymethyl]-pyridine] | 1000 to 5000
Cc1cc(OCc2cccc(-c3ccc(OC(F)(F)F)cc3)n2)ccc1CCCCn1ccnn1 [Example 30, 2-[3-Methyl-4-(4-[1,2,3]triazol-1-yl-butyl)-phenoxymethyl]-6-(4-trifluoromethoxy-phenyl)-pyridine] | 1000 to 5000
FC(F)(F)c1ccc(-c2cncc(COc3ccc(CCCCn4ccnn4)cc3)c2)cc1 [Example 33, 3-[4-(4-[1,2,3]Triazol-1-yl-butyl)-phenoxymethyl]-5-(4-trifluoromethyl-phenyl)-pyridine] | 1000 to 5000
Clc1ccc(-c2cccc(COc3ccc(CCCCn4ccnn4)cc3)n2)cc1 [Example 35, 2-(4-Chloro-phenyl)-6-[4-(4-[1,2,3]triazol-1-yl-butyl)-phenoxymethyl]-pyridine] | 1000 to 5000
Cc1cc(OCc2cncc(-c3ccc(Cl)cc3)c2)ccc1CCCCn1ccnn1 [Example 38, 3-(4-Chloro-phenyl)-5-[3-methyl-4-(4-[1,2,3]triazol-1-yl-butyl)-phenoxymethyl]-pyridine] | 1000 to 5000
Cc1cc(OCc2ccc(-c3ccc(C(F)(F)F)cc3F)nc2C)ccc1CCCCn1ccnn1 [Example 42, 6-(2-Fluoro-4-trifluoromethyl-phenyl)-2-methyl-3-[3-methyl-4-(4-[1,2,3]triazol-1-yl-butyl)-phenoxymethyl]-pyridine] | 5 to 1000
Cc1nc(-c2ccc(C(F)(F)F)cc2F)ccc1COc1ccc(CCCCn2ccnn2)cc1 [Example 43, 6-(2-Fluoro-4-trifluoromethyl-phenyl)-2-methyl-3-[4-(4-[1,2,3]triazol-1-yl-butyl)-phenoxymethyl]-pyridine] | 1000 to 5000
